Measured values taken from patent US7238724B2, “Pharmaceutical compositions as inhibitors of dipeptidyl peptidase-IV (DPP-IV)” (Abbott Laboratories, priority 2004, dated 2007).

What was measured:
DPP8 = DPP8 (Homo sapiens, UniProt Q6V1X1); assay: DPP8 inhibitory constant (Table 1 selectivity comparison); format: biochemical
DPP9 = DPP9 (Homo sapiens, UniProt Q86TI2); assay: DPP9 inhibitory constant (Table 1 selectivity comparison); format: biochemical
[1] = system: Normal mice (C57/BL6 strain); assay: acute oral glucose tolerance test (OGTT); format: in vivo; settings: OGTT 5 gm/kg
Experimental: Compounds of the present invention were evaluated for their ability to treat diabetes using an acute oral glucose tolerance test (OGTT) as follows: Normal mice (C57/BL6 strain), 6-7 weeks of age, on a normal chow diet, were fasted for 3 hrs. A baseline tail snip blood sample was taken to measure glucose levels (Precision PCx glucose meter, Abbott Laboratories, Abbott Park, Ill.) at the beginning of the experiment. Immediately after this baseline sample, compounds of the present invention (or placebo) were dosed orally. One hour later, a tail snip blood glucose measurement was taken, immediately followed by an oral glucose dose (OGTT, 5 gm/kg). The glucose excursion was followed for 2 hours with samples taken at 10, 20, 30, 60 and 120 minutes post OGTT. These timed glucose data were used to construct a glucose excursion curve, from which an area under the glucose curve (AUGC) was determined. The data reported in Table 2 is the baseline-adjusted area under the glucose curve (δAUGC) for drug and control groups.

DPP8, sequence (Q6V1X1 whole entry, species assumed): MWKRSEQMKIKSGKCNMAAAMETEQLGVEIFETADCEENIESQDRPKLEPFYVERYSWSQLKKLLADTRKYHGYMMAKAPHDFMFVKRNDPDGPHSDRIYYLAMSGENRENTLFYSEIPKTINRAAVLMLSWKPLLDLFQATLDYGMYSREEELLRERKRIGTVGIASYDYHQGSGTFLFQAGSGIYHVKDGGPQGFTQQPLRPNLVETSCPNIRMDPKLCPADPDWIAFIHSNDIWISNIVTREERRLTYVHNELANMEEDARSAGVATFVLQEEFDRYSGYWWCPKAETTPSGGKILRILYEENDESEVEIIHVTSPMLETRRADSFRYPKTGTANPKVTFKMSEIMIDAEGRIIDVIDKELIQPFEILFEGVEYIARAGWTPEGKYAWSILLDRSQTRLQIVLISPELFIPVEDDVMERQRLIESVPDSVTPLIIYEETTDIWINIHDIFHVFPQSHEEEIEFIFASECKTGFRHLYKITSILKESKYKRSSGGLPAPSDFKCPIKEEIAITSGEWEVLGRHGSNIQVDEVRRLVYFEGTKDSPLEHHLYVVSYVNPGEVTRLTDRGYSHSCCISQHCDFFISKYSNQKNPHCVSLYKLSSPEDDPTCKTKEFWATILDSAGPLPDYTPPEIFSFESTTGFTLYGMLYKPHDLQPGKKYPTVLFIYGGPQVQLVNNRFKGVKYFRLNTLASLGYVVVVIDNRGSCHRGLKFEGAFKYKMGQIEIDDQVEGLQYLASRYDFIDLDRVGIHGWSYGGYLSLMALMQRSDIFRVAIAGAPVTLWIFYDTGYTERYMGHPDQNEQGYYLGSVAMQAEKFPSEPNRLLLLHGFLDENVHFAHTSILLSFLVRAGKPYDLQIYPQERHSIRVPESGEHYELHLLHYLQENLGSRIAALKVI
DPP9, sequence (Q86TI2 whole entry, species assumed): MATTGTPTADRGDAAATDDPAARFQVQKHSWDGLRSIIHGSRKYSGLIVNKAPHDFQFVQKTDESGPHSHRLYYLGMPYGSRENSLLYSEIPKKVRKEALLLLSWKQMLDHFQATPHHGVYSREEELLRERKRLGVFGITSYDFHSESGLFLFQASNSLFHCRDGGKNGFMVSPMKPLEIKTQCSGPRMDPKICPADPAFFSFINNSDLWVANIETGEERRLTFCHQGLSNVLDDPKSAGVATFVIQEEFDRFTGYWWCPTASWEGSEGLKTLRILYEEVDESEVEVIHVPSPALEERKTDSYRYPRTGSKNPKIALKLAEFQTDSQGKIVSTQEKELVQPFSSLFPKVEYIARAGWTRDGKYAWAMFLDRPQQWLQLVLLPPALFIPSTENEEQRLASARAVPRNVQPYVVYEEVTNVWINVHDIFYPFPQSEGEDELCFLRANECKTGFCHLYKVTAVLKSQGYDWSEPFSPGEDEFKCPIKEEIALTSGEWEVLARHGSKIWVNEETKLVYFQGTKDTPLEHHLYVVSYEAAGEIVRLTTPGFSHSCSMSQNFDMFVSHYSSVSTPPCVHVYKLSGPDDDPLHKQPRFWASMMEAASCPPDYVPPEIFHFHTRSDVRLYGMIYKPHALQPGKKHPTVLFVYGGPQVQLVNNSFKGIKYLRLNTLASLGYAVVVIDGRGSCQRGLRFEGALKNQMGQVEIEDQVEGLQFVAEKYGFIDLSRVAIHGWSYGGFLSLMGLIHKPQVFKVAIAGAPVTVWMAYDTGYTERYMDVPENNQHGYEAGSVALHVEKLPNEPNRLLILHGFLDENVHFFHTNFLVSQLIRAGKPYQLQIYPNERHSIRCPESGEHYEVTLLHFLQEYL

Row | Compound | Ki (DPP8) [µM] | Ki (DPP9) [µM] | δ AUGC, change versus Control ([1]; 1.0 mg/kg dosed orally) [%] | δ AUGC, change versus Control ([1]; 3.0 mg/kg dosed orally) [%]
1 | CC(C)(C)NCC(=O)N1[C@H](C#N)CC[C@@H]1C#N [Compound 9, (2R,5S)-1-[(tert-butylamino)acetyl]pyrrolidine-2,5-dicarbonitrile] | > 100 | > 100 |  | 
2 | C#C[C@H]1CC[C@@H](C#N)N1C(=O)CN[C@H]1CC[C@H](Oc2ccc(C#N)cn2)CC1 (relative stereo) [Compound 3, (2S,5R)-5-ethynyl-1-{N-(4-trans(5-cyano-pyridin-2-yloxy)cyclohexyl)glycyl}pyrrolidine-2-carbonitrile] | > 30 |  | −39 | −54
